# Data as given in US10167262B2, “Herbicidal substituted 3-arylpyrazoles” (FMC CORPORATION, priority 2014, dated 2019).
# Legend:
# Assay in all cases: Test E pre-/postemergence greenhouse test, plant response rating 0-100
# Assay type in all cases: in vivo
# [1] = system: dayflower (Virginia (VA) dayflower, Commelina virginica); conditions: scale 0 to 100; for Plant response rating, Dayflower, VA: Postemergence; for Dayflower, VA plant response rating: Preemergence
# How it was run: (§1)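 Sow seeds in silt loam and treat preemergence; at the same time, spray postemergence on 1- to 4-leaf plants in peat/vermiculite mix. Use a non-phytotoxic solvent plus surfactant as carrier. Hold 14–21 days in greenhouse, then score visually 0–100 against controls.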
# corn (Zea mays) = conditions: scale 0 to 100; for Plant response rating, Corn: Postemergence; for Corn plant response rating: Preemergence
# How it was run: as §1
# [2] = system: fall panicum (Panicum dichotomiflorum); conditions: scale 0 to 100; for Plant response rating, Panicum, Fall: Postemergence; for Panicum, Fall plant response rating: Preemergence
# How it was run: as §1
# [3] = system: sandbur (southern sandbur, Cenchrus echinatus); conditions: scale 0 to 100; for Plant response rating, Sandbur: Postemergence; for Sandbur plant response rating: Preemergence
# How it was run: as §1
# [4] = system: field bindweed (Convolvulus arvensis); conditions: scale 0 to 100; for Plant response rating, Field Bindweed: Postemergence; for Field Bindweed plant response rating: Preemergence
# How it was run: as §1
# [5] = system: Italian ryegrass (Lolium multiflorum); conditions: scale 0 to 100; for Plant response rating, Ryegrass, Italian: Postemergence; for Ryegrass, Italian plant response rating: Preemergence
# How it was run: as §1
# [6] = system: hairy beggarticks (Bidens pilosa); conditions: scale 0 to 100; for Plant response rating, Beggarticks: Postemergence; for Beggarticks plant response rating: Preemergence
# How it was run: as §1
# [7] = system: barnyardgrass (Echinochloa crus-galli); conditions: scale 0 to 100; for Plant response rating, Barnyardgrass: Postemergence; for Barnyardgrass plant response rating: Preemergence
# How it was run: as §1
# [8] = system: Brazilian crabgrass (Digitaria horizontalis); conditions: scale 0 to 100; for Plant response rating, Crabgrass, Brazil: Postemergence; for Crabgrass, Brazil plant response rating: Preemergence
# How it was run: as §1
# [9] = system: wild poinsettia (Euphorbia heterophylla); conditions: scale 0 to 100; for Plant response rating, Poinsettia, Wild: Postemergence; for Poinsettia, Wild plant response rating: Preemergence
# How it was run: as §1
# [10] = system: waterhemp (common waterhemp, Amaranthus rudis); conditions: scale 0 to 100; for Plant response rating, Waterhemp: Postemergence; for Waterhemp plant response rating: Preemergence
# How it was run: as §1
# soybean (Glycine max) = conditions: scale 0 to 100; for Plant response rating, Soybean: Postemergence; for Soybean plant response rating: Preemergence
# How it was run: as §1
smiles,measurement,setting,value
O=Cn1cc(C(=O)c2ccccc2)c(-c2cc(Cl)cc(Cl)c2)n1 [Compound 28],"Plant response rating, Dayflower, VA",[1]; 31 g ai/ha,0
same,"Plant response rating, Dayflower, VA",[1]; 62 g ai/ha,0
same,"Plant response rating, Dayflower, VA",[1]; 125 g ai/ha,0
same,"Plant response rating, Dayflower, VA",[1]; 250 g ai/ha,0
same,"Plant response rating, Dayflower, VA",[1]; 500 g ai/ha,0
same,"Dayflower, VA plant response rating",[1]; 31 g ai/ha,0
same,"Dayflower, VA plant response rating",[1]; 62 g ai/ha,0
same,"Dayflower, VA plant response rating",[1]; 125 g ai/ha,0
same,"Dayflower, VA plant response rating",[1]; 250 g ai/ha,0
same,"Dayflower, VA plant response rating",[1]; 500 g ai/ha,0
same,"Plant response rating, Corn",corn (Zea mays); 31 g ai/ha,0
same,"Plant response rating, Corn",corn (Zea mays); 62 g ai/ha,0
same,"Plant response rating, Corn",corn (Zea mays); 125 g ai/ha,0
same,"Plant response rating, Corn",corn (Zea mays); 250 g ai/ha,0
same,"Plant response rating, Corn",corn (Zea mays); 500 g ai/ha,0
same,Corn plant response rating,corn (Zea mays); 31 g ai/ha,0
same,Corn plant response rating,corn (Zea mays); 62 g ai/ha,0
same,Corn plant response rating,corn (Zea mays); 125 g ai/ha,0
same,Corn plant response rating,corn (Zea mays); 250 g ai/ha,0
same,Corn plant response rating,corn (Zea mays); 500 g ai/ha,0
same,"Plant response rating, Panicum, Fall",[2]; 31 g ai/ha,0
same,"Plant response rating, Panicum, Fall",[2]; 62 g ai/ha,0
same,"Plant response rating, Panicum, Fall",[2]; 125 g ai/ha,0
same,"Plant response rating, Panicum, Fall",[2]; 250 g ai/ha,0
same,"Plant response rating, Panicum, Fall",[2]; 500 g ai/ha,0
same,"Panicum, Fall plant response rating",[2]; 31 g ai/ha,0
same,"Panicum, Fall plant response rating",[2]; 62 g ai/ha,0
same,"Panicum, Fall plant response rating",[2]; 125 g ai/ha,0
same,"Panicum, Fall plant response rating",[2]; 250 g ai/ha,0
same,"Panicum, Fall plant response rating",[2]; 500 g ai/ha,0
same,"Plant response rating, Sandbur",[3]; 31 g ai/ha,0
same,"Plant response rating, Sandbur",[3]; 62 g ai/ha,0
same,"Plant response rating, Sandbur",[3]; 125 g ai/ha,0
same,"Plant response rating, Sandbur",[3]; 250 g ai/ha,0
same,"Plant response rating, Sandbur",[3]; 500 g ai/ha,0
same,Sandbur plant response rating,[3]; 31 g ai/ha,0
same,Sandbur plant response rating,[3]; 62 g ai/ha,0
same,Sandbur plant response rating,[3]; 125 g ai/ha,0
same,Sandbur plant response rating,[3]; 250 g ai/ha,0
same,Sandbur plant response rating,[3]; 500 g ai/ha,0
same,"Plant response rating, Field Bindweed",[4]; 31 g ai/ha,0
same,"Plant response rating, Field Bindweed",[4]; 62 g ai/ha,0
same,"Plant response rating, Field Bindweed",[4]; 125 g ai/ha,0
same,"Plant response rating, Field Bindweed",[4]; 250 g ai/ha,10
same,"Plant response rating, Field Bindweed",[4]; 500 g ai/ha,20
same,Field Bindweed plant response rating,[4]; 31 g ai/ha,0
same,Field Bindweed plant response rating,[4]; 62 g ai/ha,0
same,Field Bindweed plant response rating,[4]; 125 g ai/ha,0
same,Field Bindweed plant response rating,[4]; 250 g ai/ha,0
same,Field Bindweed plant response rating,[4]; 500 g ai/ha,0
same,"Plant response rating, Ryegrass, Italian",[5]; 31 g ai/ha,0
same,"Plant response rating, Ryegrass, Italian",[5]; 62 g ai/ha,0
same,"Plant response rating, Ryegrass, Italian",[5]; 125 g ai/ha,0
same,"Plant response rating, Ryegrass, Italian",[5]; 250 g ai/ha,0
same,"Plant response rating, Ryegrass, Italian",[5]; 500 g ai/ha,0
same,"Ryegrass, Italian plant response rating",[5]; 31 g ai/ha,0
same,"Ryegrass, Italian plant response rating",[5]; 62 g ai/ha,0
same,"Ryegrass, Italian plant response rating",[5]; 125 g ai/ha,0
same,"Ryegrass, Italian plant response rating",[5]; 250 g ai/ha,10
same,"Ryegrass, Italian plant response rating",[5]; 500 g ai/ha,20
same,"Plant response rating, Beggarticks",[6]; 31 g ai/ha,80
same,"Plant response rating, Beggarticks",[6]; 62 g ai/ha,90
same,"Plant response rating, Beggarticks",[6]; 125 g ai/ha,95
same,"Plant response rating, Beggarticks",[6]; 250 g ai/ha,98
same,"Plant response rating, Beggarticks",[6]; 500 g ai/ha,98
same,Beggarticks plant response rating,[6]; 31 g ai/ha,0
same,Beggarticks plant response rating,[6]; 62 g ai/ha,0
same,Beggarticks plant response rating,[6]; 125 g ai/ha,40
same,Beggarticks plant response rating,[6]; 250 g ai/ha,70
same,Beggarticks plant response rating,[6]; 500 g ai/ha,70
same,"Plant response rating, Barnyardgrass",[7]; 31 g ai/ha,0
same,"Plant response rating, Barnyardgrass",[7]; 62 g ai/ha,0
same,"Plant response rating, Barnyardgrass",[7]; 125 g ai/ha,0
same,"Plant response rating, Barnyardgrass",[7]; 250 g ai/ha,0
same,"Plant response rating, Barnyardgrass",[7]; 500 g ai/ha,0
same,Barnyardgrass plant response rating,[7]; 31 g ai/ha,0
same,Barnyardgrass plant response rating,[7]; 62 g ai/ha,0
same,Barnyardgrass plant response rating,[7]; 125 g ai/ha,0
same,Barnyardgrass plant response rating,[7]; 250 g ai/ha,0
same,Barnyardgrass plant response rating,[7]; 500 g ai/ha,0
same,"Plant response rating, Crabgrass, Brazil",[8]; 31 g ai/ha,0
same,"Plant response rating, Crabgrass, Brazil",[8]; 62 g ai/ha,0
same,"Plant response rating, Crabgrass, Brazil",[8]; 125 g ai/ha,0
same,"Plant response rating, Crabgrass, Brazil",[8]; 250 g ai/ha,0
same,"Plant response rating, Crabgrass, Brazil",[8]; 500 g ai/ha,0
same,"Crabgrass, Brazil plant response rating",[8]; 31 g ai/ha,0
same,"Crabgrass, Brazil plant response rating",[8]; 62 g ai/ha,0
same,"Crabgrass, Brazil plant response rating",[8]; 125 g ai/ha,0
same,"Crabgrass, Brazil plant response rating",[8]; 250 g ai/ha,35
same,"Crabgrass, Brazil plant response rating",[8]; 500 g ai/ha,65
same,"Plant response rating, Poinsettia, Wild",[9]; 31 g ai/ha,0
same,"Plant response rating, Poinsettia, Wild",[9]; 62 g ai/ha,0
same,"Plant response rating, Poinsettia, Wild",[9]; 125 g ai/ha,0
same,"Plant response rating, Poinsettia, Wild",[9]; 250 g ai/ha,10
same,"Plant response rating, Poinsettia, Wild",[9]; 500 g ai/ha,15
same,"Poinsettia, Wild plant response rating",[9]; 31 g ai/ha,0
same,"Poinsettia, Wild plant response rating",[9]; 62 g ai/ha,0
same,"Poinsettia, Wild plant response rating",[9]; 125 g ai/ha,0
same,"Poinsettia, Wild plant response rating",[9]; 250 g ai/ha,0
same,"Poinsettia, Wild plant response rating",[9]; 500 g ai/ha,0
same,"Plant response rating, Waterhemp",[10]; 31 g ai/ha,80
same,"Plant response rating, Waterhemp",[10]; 62 g ai/ha,85
same,"Plant response rating, Waterhemp",[10]; 125 g ai/ha,85
same,"Plant response rating, Waterhemp",[10]; 250 g ai/ha,90
same,"Plant response rating, Waterhemp",[10]; 500 g ai/ha,90
same,Waterhemp plant response rating,[10]; 31 g ai/ha,0
same,Waterhemp plant response rating,[10]; 62 g ai/ha,0
same,Waterhemp plant response rating,[10]; 125 g ai/ha,65
same,Waterhemp plant response rating,[10]; 250 g ai/ha,95
same,Waterhemp plant response rating,[10]; 500 g ai/ha,95
same,"Plant response rating, Soybean",soybean (Glycine max); 31 g ai/ha,0
same,"Plant response rating, Soybean",soybean (Glycine max); 62 g ai/ha,0
same,"Plant response rating, Soybean",soybean (Glycine max); 125 g ai/ha,0
same,"Plant response rating, Soybean",soybean (Glycine max); 250 g ai/ha,0
same,"Plant response rating, Soybean",soybean (Glycine max); 500 g ai/ha,0
same,Soybean plant response rating,soybean (Glycine max); 31 g ai/ha,0
same,Soybean plant response rating,soybean (Glycine max); 62 g ai/ha,0
same,Soybean plant response rating,soybean (Glycine max); 125 g ai/ha,0
same,Soybean plant response rating,soybean (Glycine max); 250 g ai/ha,0
same,Soybean plant response rating,soybean (Glycine max); 500 g ai/ha,0
